Test results as given in US7612087B2, “Heterocyclic compounds as inhibitors of beta-lactamases” (Novexel, priority 2002, dated 2009).
Structures can show the parent of a compound that is named as a salt.

What was measured:
β-lactamase TEM1 = molecular target: T1, β-lactamase TEM1 (Escherichia coli, UniProt P62593); assay: Inhibition of isolated β-lactamase Tem-1 (Nitrocefin hydrolysis); assay type: biochemical, E.coli 250HT21; conditions: 100 μM Nitrocefin, 50 mM sodium phosphate buffer pH7.0, 37° C.
T1 construct: The β-lactamases are isolated from bacterial strains which are resistant to penicillins and cephalosporins; endogenous in cells; host or cells: E. coli 250HT21 (natural producer; French-press lysate, 100,000 g supernatant)
Experimental: (§1) A. Preparation of the β-lactamases Tem-1 and P99
(§2) The β-lactamases are isolated from bacterial strains which are resistant to penicillins and cephalosporins (Tem1 and P99 are produced by E.coli 250HT21 and E.Cloacae 293HT6 respectively).
(§3) The bacteria are cultured at 37° C. in heart-brain culture at 37 g/l (DIFCO). They are harvested at the end of the exponential phase, cooled down and centrifuged. The bacterial pellets are taken up in sodium phosphate buffer 50 mM, pH 7.0 and centrifuged again. The bacteria are taken up in two volumes of the same buffer and lyzed using a French-Press maintained at 4° C. After centrifugation for 1 hour at 100,000 g, at 4° C., the supernatants containing the soluble fraction of the bacterial extracts are recovered and frozen at −80° C.
(§4) The method uses Nitrocefin (OXOID), cephalosporin chromogene as substrate, of which the product hydrolyzed by the B-lactamases is red and absorbs at 485 nm. Beta-lactamase activity is determined kinetically by measurement of the absorbance variation at 485 nm resulting from the hydrolysis of the substrate using a plate spectrophotometer (Spectra Max More Molecular Devices). The experiments are carried out at 37° C. The quantity of enzyme was normalized and the measurements are carried out at initial speed.
(§5) Two measurements were carried out, without preincubation and with preincubation of the enzyme and inhibitor (5 mn), in order to test the irreversibility of the reaction. The products are tested at 6 or 8 concentrations in duplicate. The reaction mixture contains 100 μM of Nitrocefin and 50 mM sodium phosphate buffer pH7.0.
(§6) The hydrolysis speeds are measured with and without inhibitor. The concentration of inhibitor which inhibits by 50% the hydrolysis reaction of Nitrocefin by the enzyme (CI50) is determined. The data is processed using GraFit software (Erathycus Software).

β-lactamase P99 = molecular target: T2, β-lactamase P99 (Enterobacter cloacae, UniProt P05364); assay: biochemical; conditions: 100 μM Nitrocefin, 50 mM sodium phosphate buffer pH7.0, 37° C.; read-out: IC50 nM/P99
T2 construct: The β-lactamases are isolated from bacterial strains which are resistant to penicillins and cephalosporins; endogenous in cells; host or cells: Enterobacter cloacae 293HT6 (natural producer; French-press lysate, 100,000 g supernatant)
Experimental: as §1, §2, §3, §4, §5, §6

T1 sequence (P62593 24-286 limits assumed): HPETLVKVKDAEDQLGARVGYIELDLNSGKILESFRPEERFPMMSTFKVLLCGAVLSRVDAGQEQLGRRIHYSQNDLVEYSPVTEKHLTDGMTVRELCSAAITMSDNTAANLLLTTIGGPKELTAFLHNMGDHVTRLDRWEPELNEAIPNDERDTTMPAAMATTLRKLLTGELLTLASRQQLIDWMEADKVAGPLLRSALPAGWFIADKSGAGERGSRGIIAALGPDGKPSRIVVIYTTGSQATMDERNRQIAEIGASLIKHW
T2 sequence (P05364 21-381): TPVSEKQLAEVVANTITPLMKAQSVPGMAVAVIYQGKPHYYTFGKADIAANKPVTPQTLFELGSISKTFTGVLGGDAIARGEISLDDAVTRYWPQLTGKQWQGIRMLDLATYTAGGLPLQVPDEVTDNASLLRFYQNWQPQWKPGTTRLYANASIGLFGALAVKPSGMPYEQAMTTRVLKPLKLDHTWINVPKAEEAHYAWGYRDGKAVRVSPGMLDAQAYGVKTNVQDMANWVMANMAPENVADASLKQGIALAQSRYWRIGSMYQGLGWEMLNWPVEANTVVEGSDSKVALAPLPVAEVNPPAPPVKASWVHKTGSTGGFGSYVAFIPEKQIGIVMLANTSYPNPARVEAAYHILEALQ

Compound | IC50 (β-lactamase TEM1) [nM] | IC50 (β-lactamase P99) [nM]
O=C(c1ccccc1)N1C(=O)N2CCCC1C2 (centres unmarked) [Example 14, 6-benzoyl-1,6-diazabicyclo[3.2.1]octan-7-one] | 6400 | –
O=C(c1ccccc1)N1C(=O)N2CC1CCC2CO (centres unmarked) [Example 29f, 6-benzoyl-2-(hydroxymethyl)-1,6-diazabicyclo[3.2.1]octan-7-one] | 5200 | –
O=C(OCc1ccccc1)[C@H]1C[C@@H]2CN1C(=O)N2C(=O)c1ccccc1 (relative stereo) [Example 7a, trans phenylmethyl 3-benzoyl-2-oxo-1,3-diazabicyclo[2.2.1]heptane-6-carboxylate] | 55 | 17
O=C1N2CCCC(C2)N1OS(=O)(=O)O (centres unmarked) [Example 54, Sodium salt of 6-(sulphooxy)-1,6-diazabicyclo[3.2.1]octan-7-one] | 3100 | –
Cc1ccc(S(=O)(=O)ON2C(=O)N3CCCC2C3)cc1 (centres unmarked) [Example 19e, 6-[[(4-methylphenyl)sulphonyl]oxy]-1,6-diazabicyclo[3.2.1]octan-7-one] | 11 | –
O=C(O)C1CCC2CN1C(=O)O2 (stereo not drawn) [Example 26b, trans-7-oxo-6-oxa-1-azabicyclo[3.2.1.]octane-2 carboxylic acid] | 4900 | –
CS(=O)(=O)ON1C(=O)N2CCCC1C2 (centres unmarked) [Example 19f, 6-[(methylsulphonyl)oxy]-1,6-diazabicyclo[3.2.1]octan-7-one] | 110 | –
O=C(OCc1ccccc1)[C@H]1C[C@@H]2CN1C(=O)N2S(=O)(=O)c1ccccc1 (relative stereo) [Example 8, trans phenylmethyl 2-oxo-3-(phenylsulphonyl)-1,3-diazabicyclo[2.2.1]heptane-6-carboxylate] | 1400 | 62
O=C(OCc1ccccc1)C1CCC2CN1C(=O)N2OS(=O)(=O)c1cccs1 (stereo not drawn) [Example 28d, trans pheylmethyl 7-oxo-6-[(2-thienylsulphonyl)oxy]-1,6-diazabicyclo[3.2.1]octane-2-carboxylate] | 1.3 | 390
O=C1N2CCCC(C2)N1OS(=O)(=O)c1ccc([N+](=O)[O-])cc1 (centres unmarked) [Example 19g] | 29 | –
COC1=CC2CN(C1)C(=O)N2OS(=O)(=O)O (centres unmarked) [Example 52, Sodium salt of 3-methoxy-6-(sulphooxy)-1,6-diazabicyclo[3.2.1]oct-3-in-7-one] | 11 | 4600
O=C(O)CC[C@@H]1CCN2C[C@H]1OC2=O (relative stereo) [Example 1a, cis-7-oxo-6-oxa-1-azabicyclo[3.2.1]octane-4-propanoic acid] | 700 | > 10000
O=C(NCc1ccccc1)[C@@H]1CC[C@@H]2CN1C(=O)N2C(=O)c1ccccc1 (relative stereo) [Example 29d, trans-6-benzoyl-7-oxo-N-(phenylmethyl)-1,6-diazabicyclo[3.2.1]octane-2-carboxamide] | 9500 | 2000
O=C(OCc1ccccc1)C1CCC2CN1C(=O)N2OS(=O)(=O)O (stereo not drawn) [Example 28b, Sodium salt of trans phenylmethyl 7-oxo-6-(sulphooxy)-1,6-diazabicyclo[3.2.1]octane-2-carboxylate] | 9.5 | 12
COC(=O)[C@@H]1CC[C@@H]2CN1C(=O)O2 (relative stereo) [Example 26c, trans methyl 7-oxo-6-oxa-1-azabicyclo[3.2.1]octane-2-carboxylate] | 1100 | 7000
O=C(C[C@@H]1CCN2C[C@H]1OC2=O)OC(c1ccccc1)c1ccccc1 (relative stereo) [Example 3, cis diphenylmethyl 7-oxo-6-oxa-1-azabicyclo[3.2.1]octan-4-acetate] | 590 | 9800
O=C(C[C@@H]1CCN2C[C@@H]1OC2=O)OC(c1ccccc1)c1ccccc1 (relative stereo) [Example 2, Trans diphenylmethyl 7-oxo-6-oxa-1-azabicyclo[3.2.1]octan-4-acetate] | 462 | –
O=C(c1ccccc1)N1C(=O)N2CCC1C2 (centres unmarked) [Example 5, 3-benzoyl-1,3-diazabicyclo[2.2.1]heptan-2-one] | 1010 | –
6-benzoyl—N—[methyl(phenylmethyl)]-7-oxo-1,6-diazabicyclo[3.2.1]octane-2-carboxamide [Example 29e] | 4200 | 6300
O=C1OC2C=CCN1C2 (centres unmarked) [Example 22, 6-oxa-1-azabicyclo[3.2.1]oct-3-en-7-one] | 5100 | –
trans phenylmethyl 6-(2-hydroxy-2-oxoethoxy)-7-oxo-1,6-diazabicyclo[3.2.1]octane-2-carboxylate [Example 28e] | 52 | –
O=C(OCc1ccccc1)[C@@H]1C[C@@H]2CN1C(=O)N2OS(=O)(=O)O (relative stereo) [Example 10, 1-propenyltriphenylphosphonium salt of trans phenylmethyl 2-oxo-3-(sulphooxy)-1,3-diazabicyclo[2.2.1]heptane-6-carboxylate] | 0.26 | 1.5
O=C(O)C1CCC2CN1C(=O)N2C(=O)c1ccccc1 (stereo not drawn) [Example 29b, trans-6-benzoyl-7-oxo-1,6-iazabicyclo[3.2.1]octane-2-carboxylic acid] | 460 | 4200
O=C1N2CC=CC(C2)N1OS(=O)(=O)O (centres unmarked) [Example 53, Sodium salt of 6-(sulphooxy)-1,6-diazabicyclo[3.2.1]oct-3-in-7-one] | 15 | 5900
N#CC[C@@H]1CCN2C[C@H]1OC2=O (relative stereo) [Example 4, cis-7-oxo-6-oxa-1-azabicyclo[3.2.1]octan-4-acetonitrile] | 2710 | –
O=C(O)C[C@@H]1CCN2C[C@@H]1OC2=O (relative stereo) [Example 2a, trans-7-oxo-6-oxa-1-azabicyclo[3.2.1]octan-4-acetic acid] | 6730 | –
COC(=O)C[C@@H]1CCN2C[C@H]1OC2=O (relative stereo) [Example 3b, cis methyl 7-oxo-6-oxa-1-azabicyclo[3.2.1]octan-4-acetate] | 2010 | –
C[C@@]12C[C@H](C(=O)OCc3ccccc3)N(C1)C(=O)N2C(=O)c1ccccc1 (relative stereo) [Example 9, trans phenylmethyl 3-benzoyl-4-methyl-2-oxo-1,3-diazabicyclo[2.2.1]heptane-6-carboxylate] | 8500 | 630
C=CCOC(=O)N1C(=O)N2CC1CCC2C(=O)OCc1ccc([N+](=O)[O-])cc1 (stereo not drawn) [Example 31, trans (4-nitrophenyl)methyl and 2-propenyl 7-oxo-1,6-diazabicyclo[3.2.1]octane-2,6-dicarboxylate] | 5700 | –
O=C(O)C[C@@H]1CCN2C[C@H]1OC2=O (relative stereo) [Example 3a, cis-7-oxo-6-oxa-1-azabicyclo[3.2.1]octan-4-acetic acid] | 4400 | –
